According to patent publication US20230278972A1, “SUBSTITUTED HALOALKYL SULFONANILIDE HERBICIDES” (FMC Corporation, priority 2020, published 2023):

Experiments:
Assay type in all cases: in vivo
[1] = test system: barnyardgrass (Echinochloa crus-galli); assay: Test B1 flooded paddy test, barnyardgrass; conditions: 250 g ai/ha, Flood, applied to paddy water, 2-leaf stage, visually evaluated after 10 to 14 days
Description: (§1) A dash (-) response means no test result.

[2] = test system: kochia (Bassia scoparia); assay: Test A1 postemergence, kochia; conditions: for Plant response rating, Kochia: Postemergence
In short: (§2)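 Both timings started from seed in a loam-sand blend. Preemergence pots got a directed soil application immediately; postemergence pots were sprayed when seedlings had one or two leaves and stood 2–10 cm. Each compound was prepared in a non-phytotoxic solvent plus surfactant.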

[3] = test system: galium (catchweed bedstraw, Galium aparine); assay: Test A1 postemergence, galium; conditions: for Plant response rating, Galium: Postemergence
In short: as §2

[4] = test system: Oat, Wild (wild oat, Avena fatua); assay: Test A1 postemergence, Oat, Wild; conditions: for Plant response rating, Oat, Wild: Postemergence
In short: (§3)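 Seeds were first planted into a blend of loam soil and sand and given a preemergence directed soil spray. In parallel, pots of the same soil were sown for postemergence application once plants reached 2 to 10 cm and the one- to two-leaf stage. Both used surfactant-containing non-phytotoxic solvent formulations.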

[5] = test system: blackgrass (Alopecurus myosuroides); assay: Test A1 preemergence, blackgrass
In short: (§4)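 Test compounds were formulated in a non-phytotoxic solvent mixture containing a surfactant. For preemergence, seeds sown in a loam soil–sand blend received a directed soil spray. For postemergence, potted plants in the same soil, 2 to 10 cm tall at the one- to two-leaf stage, were sprayed.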

[6] = test system: goosegrass (Eleusine indica); assay: Test A1 preemergence, goosegrass
In short: as §4

[7] = test system: Foxtail, Giant (giant foxtail, Setaria faberi); assay: Test A1 preemergence, Foxtail, Giant
In short: as §4

[8] = test system: rice (Oryza sativa); assay: Test B1 flooded paddy test, rice; conditions: 250 g ai/ha, Flood, applied to paddy water, 2-leaf stage, visually evaluated after 10 to 14 days
Description: as §1

[9] = test system: Pigweed, Palmer (palmer amaranth, palmer pigweed, Amaranthus palmeri); assay: Test A1 postemergence, Pigweed, Palmer; conditions: for Plant response rating, Pigweed, Palmer: Postemergence
In short: as §3

[10] = 31 g ai/ha, 0 to 100 scale (0 no effect, 100 complete control), 10 days
[11] = 31 g ai/ha, 0 to 100 scale (0 no effect, 100 complete control)
[12] = 125 g ai/ha, 0 to 100 scale, 0 no effect, 100 complete control
[13] = 31 g ai/ha, postemergence, 0 to 100 scale (0 no effect, 100 complete control)

Row | Structure (SMILES) | Plant response rating, Barnyardgrass (0 to 100 scale, 0 is no effect, 100 is complete control) [1] | Plant response rating, Kochia [2, 10] | Plant response rating, Kochia ([2]; 125 g ai/ha, 0 to 100 scale) | Plant response rating, Galium [3, 10] | Plant response rating, Galium ([3]; 125 g ai/ha, 0 to 100 scale) | Plant response rating, Oat, Wild [4, 10] | Plant response rating, Oat, Wild ([4]; 125 g ai/ha, 0 to 100 scale) | Plant response rating, Blackgrass [5, 11] | Plant response rating, Blackgrass [5, 12] | Plant response rating, Goosegrass [6, 11] | Plant response rating, Goosegrass [6, 12] | Plant response rating, Foxtail, Giant [7, 11] | Plant response rating, Foxtail, Giant [7, 12] | Plant response rating, Rice (0 to 100 scale, 0 is no effect, 100 is complete control) [8] | Plant response rating, Pigweed, Palmer [9, 10] | Plant response rating, Pigweed, Palmer ([9]; 125 g ai/ha, 0 to 100 scale) | Kochia plant response rating [2, 13] | Galium plant response rating [3, 13] | Oat, Wild plant response rating [4, 13] | Pigweed, Palmer plant response rating [9, 13]
1 | Cc1c(C(=O)N2CCC(F)(F)CC2)cc(N(COC(=O)C(C)(C)C)S(=O)(=O)C(F)(F)F)c(C)c1C [Compound 360] | 95 | 30 | 50 | 50 | 100 | 0 | 0 | 0 | 0 | 0 | 90 | 0 | 40 | 25 | 20 | 40 | – | – | – | –
2 | Cc1cc(C)c(C2=NOC3OCCC23)cc1NS(=O)(=O)C(F)(F)F (stereo not shown) [Compound 349] | 90 | 70 | 80 | 100 | 100 | 0 | 30 | 50 | 80 | 90 | 100 | 90 | 100 | 45 | 20 | 70 | – | – | – | –
3 | CCC1ON=C(c2cc(NS(=O)(=O)C(F)(F)F)c(C)cc2C)C1CC (stereo not shown) [Compound 343] | 85 | 20 | 60 | 70 | 100 | 0 | 50 | 60 | 90 | 90 | 100 | 90 | 100 | 40 | 0 | 60 | – | – | – | –
4 | Cc1cc(C)c(N(COC(=O)C(C)(C)C)S(=O)(=O)C(F)(F)F)cc1C1=NOC2COCC12 (stereo not shown) [Compound 301] | 95 | 0 | 30 | 70 | 90 | 0 | 10 | 30 | 40 | 80 | 100 | 10 | 90 | 0 | 0 | 30 | – | – | – | –
5 | Cc1c(NS(=O)(=O)C(F)(F)F)cc(C(=O)N2CCC(F)(F)CC2)c(C)c1C [Compound 357] | 45 | 0 | 30 | 90 | 100 | 0 | 0 | 0 | 10 | 80 | 100 | 10 | 90 | 10 | 0 | 50 | – | – | – | –
6 | COc1cc(C)c(NS(=O)(=O)C(F)(F)F)cc1C1=NOC2CCCC12 (stereo not shown) [Compound 312] | 0 | 0 | 0 | 0 | 30 | 0 | 20 | 0 | 0 | 0 | 50 | 20 | 30 | 0 | 0 | 0 | – | – | – | –
7 | CCOC(=O)N(c1cc(C(=O)N2CCC(c3ccccc3)CC2)c(C)cc1C)S(=O)(=O)C(F)(F)F [Compound 365] | 15 | 10 | 40 | 40 | 80 | 0 | 0 | 0 | 0 | 10 | 90 | 0 | 30 | 15 | 0 | 0 | – | – | – | –
8 | CCOC(=O)N(c1cc(C(=O)N2CCOCC2)c(C)c(C)c1C)S(=O)(=O)C(F)(F)F [Compound 325] | 95 | 20 | 50 | 40 | 90 | 0 | 10 | 0 | 40 | 100 | 100 | 30 | 100 | 15 | 30 | 90 | – | – | – | –
9 | COc1cc(C)c(C2=NOC3(CCCC3)C2)cc1NS(=O)(=O)C(F)(F)F [Compound 304] | 0 | 0 | 20 | 0 | 0 | 0 | 0 | 0 | 40 | 30 | 90 | 0 | 80 | 0 | 0 | 0 | – | – | – | –
10 | Cc1c(C(=O)N2CCC(Cl)CC2)cc(N(COC(=O)C(C)(C)C)S(=O)(=O)C(F)(F)F)c(C)c1C [Compound 359] | 95 | 30 | 40 | 50 | 80 | 0 | 0 | 0 | 0 | 0 | 90 | 0 | 90 | 15 | 0 | 20 | – | – | – | –
11 | CCC1CC(c2cc(N(COC(=O)C(C)(C)C)S(=O)(=O)C(F)(F)F)c(C)cc2C)=NO1 (stereo not shown) [Compound 376] | 95 | – | 50 | – | 30 | – | 0 | 0 | 20 | 50 | 100 | 0 | 30 | 20 | – | 20 | 0 | 10 | 0 | 0
12 | Cc1c(C(=O)N2CCCCC2)cc(NS(=O)(=O)C(F)(F)F)c(Cl)c1F [Compound 333] | 0 | 30 | 70 | 70 | 90 | 0 | 10 | 0 | 0 | 80 | 80 | 30 | 100 | 0 | 40 | 60 | – | – | – | –
13 | CCOC(=O)N(c1cc(C(=O)N2CCCCC2)c(C)c(C)c1C)S(=O)(=O)C(F)(F)F [Compound 330, Ethyl N-[(trifluoromethyl)sulfonyl]-N-[2,3,4-trimethyl-5-(1-piperidinylcarbonyl)phenyl]carbamate] | 95 | 10 | 50 | 50 | 60 | 0 | 10 | 0 | 30 | 40 | 100 | 80 | 100 | 0 | 0 | 50 | – | – | – | –
